Earlier results as cited in patent US20150030676A1, “STABLIZED MODIFIED RELEASE FOLIC ACID DERIVATIVE COMPOSITION, ITS THERAPEUTIC USE AND METHODS OF MANUFACTURE” (APTALIS PHARMATECH, INC., priority 2013, published 2015).

Settings: in vivo

6(S)-5-methyltetrahydrofolate [L-methylfolate]
plasma elimination half life: about 3 hours
